Assay results as given in patent publication US20070098777A1, “Pharmaceutical or Food Composition for Treatment or Prevention of Brain Edema” (AJINOMOTO CO., INC., priority 2000, published 2007).

Tests used:
astrocytes [1] = test: Injury of incubated astrocytes by 3-NPA, neutron red assay; type: cell-based, rat; conditions: average ± SE, after 3 days
Experimental: (§1) Isolation and incubation of astrocytes were conducted according to the method as described in Neuroscience, 87: […], 1998. Thus, cerebral cortex of a fetal rat was removed, from which astrocytes were separated with trypsin treatment at 37° C. for 20 minutes and incubated on a 24 well culture dish containing DMEM media+10% FBS under 5% CO2/air atmosphere at 37° C.
(§2) The injury of incubated astrocytes was induced by replacing the medium with a serum-free DMEM medium (serum-free group) or adding 6 mM of a metabolic inhibitor, 3-nitropropionic acid (3-NPA), to the medium (3-NPA group). The serum-free group and the 3-NPA group were divided into two sub-groups, respectively. To one sub-group of each group, 10 μg/ml of melatonin was added to the medium.
(§3) The number of the alive astrocytes was counted according to the neutron red assay after 3 days from the incubation in the 3-NPA group or according to the MTT (3-(4,5-dimethyl-thiozolyl)-2,5-diphenyl-tetrazolium bromide) assay after 10 days from the replacement of the medium. The test of significance was conducted by ANOVA.

astroglia = test: GFAP staining of brain specimens after brain ischemia (middle cerebral artery plug, 1 h, recanalization); type: in vivo, rat; conditions: 11 days after onset of ischemia, 6 mg/kg melatonin for 10 days, versus non-melatonin group
From the text: Eight to ten-week-old Wister male rats having the body weight of 250 to 300 g were used.
Under halothane anesthesia, a 24 G plug was inserted from a right external carotid artery of each rat so as to arrive to an origin of its middle cerebral artery of Willis's circle through its internal carotid artery. Immediately the anesthesia was stopped and the rat was dehypnotized. After one hour, the plug was taken out under halothane anesthesia, thereby a blood flow was recanalized.
After 11 days from an onset of brain ischemia, the brain of each rat was fixed with an aqueous 4% paraformaldehyde solution to prepare a brain specimen. Then, the brain specimen was stained according to the standard ABC method using an anti-GFAP antibody (GFAP staining; astroglia were stained)
Ischemic rats in Example 1 were divided into two groups. In the first group (non-melatonin administration group), a physiological saline solution was injected to a stomach of each rat using a sound for 10 days from the first day (24 hours after the recanalization of the blood flow). In the second group (melatonin administration group), a melatonin-containing physiological saline solution was similarly administered in an amount of 6 mg of melatonin per kg of rat. […]

neurons = test: MAP-2 staining of brain specimens after brain ischemia; type: in vivo, rat; conditions: 6 mg/kg melatonin for 10 days, versus non-melatonin group
blood-brain barrier = test: IgG diapedesis area from blood vessel after brain ischemia (anti-IgG staining, NIH imaging); type: in vivo, rat; conditions: average ± SE; 6 mg/kg melatonin into stomach for 10 days from 24 hours after recanalization; 11 rats
From the text: Eight to ten-week-old Wister male rats having the body weight of 250 to 300 g were used. Under halothane anesthesia, a 24 G plug was inserted from a right external carotid artery of each rat so as to arrive to an origin of its middle cerebral artery of Willis's circle through its internal carotid artery. Immediately the anesthesia was stopped and the rat was dehypnotized. After one hour, the plug was taken out under halothane anesthesia, thereby a blood flow was recanalized. Ischemic rats in Example 1 were divided into two groups. In the first group (non-melatonin administration group), a physiological saline solution was injected to a stomach of each rat using a sound for 10 days from the first day (24 hours after the recanalization of the blood flow). In the second group (melatonin administration group), a melatonin-containing physiological saline solution was similarly administered in an amount of 6 mg of melatonin per kg of rat.

astrocytes [2] = test: Injury of incubated astrocytes by serum-free medium, MTT assay; type: cell-based, rat; conditions: average ± SE, serum-free DMEM + 10 μg/ml melatonin, after 10 days
Experimental: as §1, §2, §3

[3] = system: production of NO in brain; conditions: after transient ischemia/recirculation; cited from earlier work
CA1 hippocampal neurons = conditions: intraperitoneally, especially prior to cerebral ischemia or during recanalization; cited from earlier work
cheek pouch of a hamster = conditions: cited from earlier work
[4] = system: carrageenan-induced inflammatory paw swelling; conditions: rats; cited from earlier work
[5] = system: ischemic or histamine-induced paw edema; conditions: various antioxidants including melatonin, together with dexamethasone; cited from earlier work
[6] = system: acute pancreatitis (pancreatic edema) induced by cerulein; conditions: rats; cited from earlier work

Row | Structure (SMILES) | number of astrocytes (astrocytes [1]; 6 mM 3-NPA alone) | falling out of astroglia in ischemic core area and gliosis in penumbra area (astroglia) | number of the alive neurons (neurons) | IgG diapedesis area, cerebral cortex (blood-brain barrier) [mm^2] | IgG diapedesis area, corpus striatum (blood-brain barrier) [mm^2] | number of astrocytes (astrocytes [1]; 6 mM 3-NPA + 10 μg/ml melatonin, neutral red assay) | number of astrocytes (astrocytes [2]) | production of NO in brain [3] | protection of CA1 hippocampal neurons from ischemic injury (CA1 hippocampal neurons) | edema caused by ischemia-reperfusion of microcirculation (cheek pouch of a hamster; hamster cheek pouch) | increase of permeability of capillaries caused by free radicals (cheek pouch of a hamster; topical exposure to hypoxanthine-xanthine oxidase) | carrageenan-induced inflammatory paw swelling [4] | suppression by dexamethasone of ischemic or histamine-induced paw edema [5] | acute pancreatitis (pancreatic edema) induced by cerulein [6]
1 | O=C(O)CC[N+](=O)[O-] [3-NPA, 3-nitropropionic acid] | 50 ± 5 % of control | – | – | – | – | – | – | – | – | – | – | – | – | –
2 | COc1ccc2[nH]cc(CCNC(C)=O)c2c1 [melatonin, N-[2-(5-methoxy-1H-indol-3-yl)ethyl]acetamide] | – | reduced | higher | 5.5 ± 4.5 | 7.2 ± 4.0 | 63 ± 4 % of control | 48 ± 4 % of control | inhibits | protects | reduces edema | reduces the increase of permeability | suppresses | enhance or prolong | reduces an acute pancreatitis
